From article PMC4669708 (Cell Death & Disease, 2015)

Assays:
Assay in all cases: c-ponatinib pulldown LC-MS/MS
Type in all cases: binding
CDK16 = CDK16 (Homo sapiens, UniProt Q00536)
Method: (§1) Drug-affinity matrices were prepared as described previously.[51] In brief, 25 nmol of c-ponatinib were immobilized on 50 μl NHS-activated Sepharose 4 Fast Flow beads (GE Healthcare Bio-Sciences AB, Uppsala, Sweden). 10 mg whole cell lysate was used as protein input per replicate. Affinity chromatography and elution were performed in duplicate. After elution, the enriched proteins were reduced with dithiothreitol (DTT) and cysteine residues were alkylated by incubation with iodoacetamide. The samples were digested with modified porcine trypsin (Promega). Five percent of the digested eluates were purified and concentrated by C18 reversed-phase material. Subsequently, samples were analyzed in duplicates by gel-free one-dimensional LCMS.
(§2) Precursor and MS/MS peaks were extracted from the RAW files and saved in the MGF format using msconvert tool (ProteoWizard Library v2.1.2708, www.proteowizard.sourceforge.net) for subsequent protein identification. An initial database search was performed with broader mass tolerance and conservative score threshold to re-calibrate the mass lists for optimal final protein identification. For the initial protein database search, Mascot (www.matrixscience.com, v2.3.02) was used. Error tolerances on the precursor and fragment ions were ±10 p.p.m. and ±0.6 Da, respectively, and the database search limited to fully-tryptic peptides with maximum one missed cleavage, carbamidomethyl cysteine and methionine oxidation set as fixed and variable modifications, respectively. The Mascot peptide ion score threshold was set to 30, and at least three peptide identifications per protein were required. Searches were performed against the human UniProtKB/SwissProt database (www.uniprot.org release 2013.01) including all protein isoforms. The initial peptide identifications were used to deduce independent linear transformations for precursor and fragment masses that would minimize the mean square deviation of measured masses from theoretical. Re-calibrated mass list files were searched against the same human protein database by a combination of Mascot and Phenyx (GeneBio SA, Geneva, Switzerland; version 2.5.14) search engines using narrower mass tolerances (±4 p.p.m. and ±0.3 Da). One missed tryptic cleavage site was allowed. Carbamidomethyl cysteine was set as a fixed modification and oxidized methionine was set as a variable modification. To validate the proteins, Mascot and Phenyx output files were processed by internally developed parsers. Proteins with ≥2 unique peptides above a score T1, or with a single peptide above a score T2 were selected as unambiguous identifications. Additional peptides for these validated proteins with score >T3 were also accepted. For Mascot searches, the following thresholds were used: T1=14, T2=40 and T3=10; Phenyx thresholds were set to 4.2, 4.75 and 3.5, respectively (P-value<10^−3). The validated proteins retrieved by the two algorithms were merged, any spectral conflicts discarded and grouped according to shared peptides. A false discovery rate of <1% for protein identifications and <0.1% for peptides (including the ones exported with lower scores) was determined by applying the same procedure against a database of reversed protein sequences. […] In addition to Mascot protein scores that were proposed as an estimate of protein abundance by the original algorithm, the modified version also included Phenyx protein scores and spectral counts. The algorithm first estimated three measure-specific P-values for each putative interaction, and, in contrast to,[69] P-value calculation utilized the quantiles of the measurements rather than the original data. The Fisher's method was used to combine the three resulting P-values into a single P-value for drug–protein interaction specificity. We have also correlated interaction P-values with the magnitude of competition effect represented by the fold reduction of spectral counts on free compound competition. […]

TAB1 = biological target: T1, TAB1 (Homo sapiens, UniProt Q15750)
T1 sequence (Q15750 1-504): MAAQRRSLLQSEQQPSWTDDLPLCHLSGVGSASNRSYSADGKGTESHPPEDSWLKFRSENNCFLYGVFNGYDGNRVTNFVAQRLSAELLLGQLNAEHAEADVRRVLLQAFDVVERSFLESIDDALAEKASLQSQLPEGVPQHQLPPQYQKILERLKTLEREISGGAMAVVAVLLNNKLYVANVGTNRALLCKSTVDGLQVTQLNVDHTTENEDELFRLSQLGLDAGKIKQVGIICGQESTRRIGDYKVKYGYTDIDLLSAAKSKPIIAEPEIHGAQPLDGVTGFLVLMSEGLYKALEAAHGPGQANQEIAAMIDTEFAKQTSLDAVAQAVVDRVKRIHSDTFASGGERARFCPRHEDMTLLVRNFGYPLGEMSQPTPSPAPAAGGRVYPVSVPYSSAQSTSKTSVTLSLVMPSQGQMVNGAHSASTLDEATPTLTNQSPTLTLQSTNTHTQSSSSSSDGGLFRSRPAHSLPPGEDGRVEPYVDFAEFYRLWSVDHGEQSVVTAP
T1 sequence (O43318 1-606 partner): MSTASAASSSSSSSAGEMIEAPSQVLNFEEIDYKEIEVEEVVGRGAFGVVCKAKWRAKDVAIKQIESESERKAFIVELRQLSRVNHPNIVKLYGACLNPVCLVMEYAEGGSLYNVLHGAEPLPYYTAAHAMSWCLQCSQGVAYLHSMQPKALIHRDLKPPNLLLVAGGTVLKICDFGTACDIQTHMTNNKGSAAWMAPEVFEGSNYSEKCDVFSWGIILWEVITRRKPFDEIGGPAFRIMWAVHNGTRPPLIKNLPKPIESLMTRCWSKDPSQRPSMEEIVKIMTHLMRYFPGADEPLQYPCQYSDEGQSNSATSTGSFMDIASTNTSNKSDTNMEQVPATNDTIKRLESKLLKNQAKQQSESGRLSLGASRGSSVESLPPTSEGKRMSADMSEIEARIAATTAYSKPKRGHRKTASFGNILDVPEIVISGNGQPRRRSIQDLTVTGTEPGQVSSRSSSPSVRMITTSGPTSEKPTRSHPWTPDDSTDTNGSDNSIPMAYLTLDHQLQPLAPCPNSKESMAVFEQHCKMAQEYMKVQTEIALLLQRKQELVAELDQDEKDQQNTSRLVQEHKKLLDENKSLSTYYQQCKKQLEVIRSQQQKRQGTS
Method: as §1, §2

TESK2 = TESK2 (Homo sapiens, UniProt Q96S53)
Chain of TESK2 (Q96S53 whole entry): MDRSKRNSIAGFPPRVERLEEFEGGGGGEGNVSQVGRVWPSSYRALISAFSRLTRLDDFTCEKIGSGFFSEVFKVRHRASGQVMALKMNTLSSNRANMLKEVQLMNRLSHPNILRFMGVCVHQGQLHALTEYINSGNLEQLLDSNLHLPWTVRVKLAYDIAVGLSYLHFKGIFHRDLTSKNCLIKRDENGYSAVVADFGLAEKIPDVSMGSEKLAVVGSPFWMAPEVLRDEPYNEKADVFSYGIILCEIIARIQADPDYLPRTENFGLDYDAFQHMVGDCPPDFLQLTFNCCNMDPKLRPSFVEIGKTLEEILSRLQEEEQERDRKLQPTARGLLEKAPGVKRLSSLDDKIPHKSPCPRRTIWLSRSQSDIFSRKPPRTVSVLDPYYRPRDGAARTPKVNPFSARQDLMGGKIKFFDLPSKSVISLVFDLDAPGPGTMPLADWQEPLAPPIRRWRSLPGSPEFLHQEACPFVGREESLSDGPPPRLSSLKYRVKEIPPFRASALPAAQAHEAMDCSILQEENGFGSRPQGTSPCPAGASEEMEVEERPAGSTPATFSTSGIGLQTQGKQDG
Method: as §1, §2

Chain of CDK16 (Q00536 whole entry): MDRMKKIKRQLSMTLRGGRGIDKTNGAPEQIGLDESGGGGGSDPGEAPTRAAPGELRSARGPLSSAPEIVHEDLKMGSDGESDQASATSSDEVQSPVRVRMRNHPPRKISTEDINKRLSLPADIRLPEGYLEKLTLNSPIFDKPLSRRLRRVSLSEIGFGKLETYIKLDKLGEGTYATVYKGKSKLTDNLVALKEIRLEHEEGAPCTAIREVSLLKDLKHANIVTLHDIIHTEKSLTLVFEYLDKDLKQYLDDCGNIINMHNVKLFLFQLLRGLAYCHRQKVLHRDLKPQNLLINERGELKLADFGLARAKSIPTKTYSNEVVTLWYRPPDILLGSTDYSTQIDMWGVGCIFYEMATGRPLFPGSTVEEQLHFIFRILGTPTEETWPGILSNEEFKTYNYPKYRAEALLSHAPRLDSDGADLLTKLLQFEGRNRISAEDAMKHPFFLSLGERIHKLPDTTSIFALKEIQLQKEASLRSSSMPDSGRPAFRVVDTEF

## Cc1ccc(C(=O)Nc2ccc(CN3CCN(CCCN)CC3)c(C(F)(F)F)c2)cc1C#Cc1cnc2cccnn12 [c-ponatinib]
CDK16; + free ponatinib
  Av. SC comp.: 1.25
  Total SC comp.: 5
CDK16; no competitor
  Av. SC: 10.75
  Total SC: 43
TAB1; + free ponatinib
  Av. SC comp.: 6.75
  Total SC comp.: 27
TAB1; no competitor
  Av. SC: 38.25
  Total SC: 153
TESK2; + free ponatinib
  Av. SC comp.: 0
  Total SC comp.: 0
TESK2; no competitor
  Av. SC: 5
  Total SC: 20
